{"source": "patent EP4772508A1", "about": "“MACROCYCLIC COMPOUND AND USE THEREOF” (Jiangsu Hengrui Pharmaceuticals Co., Ltd., priority 2023, dated 2025)", "key": {"[1]": {"assay": "Relaxivity of the compound in water", "assay_type": "physicochemical", "details": "deionized water", "experimental": "Test example 1: Relaxivity of the compound in water\nNiumag (Suzhou) Nuclear Magnetic Resonance Contrast Agent Relaxivity Analyser with a 0.5 T magnetic field\nBruker Small Animal Magnetic Resonance Imaging System (BioSpec 70/20 USR) with a 7 T magnetic field\n1 mL of the test sample was placed in a 1.5 mL EP (eppendorf) tube, and the longitudinal relaxation time T1 and transverse relaxation time T2 under different magnetic field conditions were measured separately using the Niumag (Suzhou) Nuclear Magnetic Resonance Contrast Agent Relaxivity Analyser with a 0.5 T magnetic field. The test sample was loaded into a 0.2 mL sample tube until full, and the longitudinal relaxation time T1 and transverse relaxation time T2 under different magnetic field conditions were measured separately using the Bruker Small Animal Magnetic Resonance Imaging System (BioSpec 70/20 USR) with a 7 T magnetic field.\n(§1) Based on the relaxation times T1 and T2 of samples at different concentrations, the relaxivities r1 and r2 were calculated respectively. The relaxivity was calculated according to the following equation: r = (1)/(ΔT)/C, [formula] r: relaxivity; T: relaxation time (s); C: contrast agent concentration (mM)."}, "[2]": {"assay": "Relaxivity of compounds in human plasma", "assay_type": "physicochemical", "details": "human plasma containing sodium heparin, 0.5 T", "experimental": "as §1"}, "[3]": {"assay": "Metal transfer stability test in the presence of zinc ions", "assay_type": "physicochemical", "details": "equal volumes 2.5 mM contrast agent and 2.5 mM ZnCl2, phosphate buffer, 37°C, 0.5 T", "experimental": "Test example 4: Metal transfer stability test of compounds in the presence of zinc ions • 1 . Experimental protocol • 2. […] Experiment instruments: VTMR20-010V-I Nuclear Magnetic Resonance Cross-Linking Density Imaging Analyser • 4. Experimental method\nA 2.5 mM solution of contrast agent solutions and a 2.5 mM solution of zinc chloride were respectively prepared in phosphate buffer (0.026 mol/L KH2PO4 and 0.041 mol/L Na2HPO4). An equal volume of a 2.5 mM ZnCl2 solution was added to the a 2.5 mM gadolinium contrast agent solution, and the mixture was mixed by shaking. This moment of complete mixing was designated as time zero (t = 0). Immediately thereafter, a 0.5 mL aliquot was withdrawn and subjected to measurement of the longitudinal relaxation time, T1(0), at 37°C and a magnetic field strength of 0.5 T. The mixed solution was then incubated at 37°C. 0.5 mL of the solution was taken at time points of 5 min, 180 min, 1440 min and 5760 min, respectively, to determine T1(t) at different time points. The ratio of the relaxivity at different time points to the initial relaxivity at time 0, namely R1(t)/R1(0), was calculated."}, "canine plasma proteins": {"test_system": "canine plasma proteins", "details": "dog, 1000 µM", "experimental": "After the preparation of plasma samples, 0.5 mL of plasma samples were transferred into ultracentrifugation tubes, with 3 replicates per concentration. After incubation in a CO2 incubator at 37°C for 0.5 h, the samples were subjected to ultracentrifugation at 627,000 g for 3 hours at 37°C. After centrifugation, 100 µL of samples were taken from the central layer of the ultracentrifugation tubes and mixed with 100 µL of blank plasma. The samples were stored at -70°C for subsequent determination.\nThe plasma protein binding rates of analytes at different concentration levels were calculated using the following formulas: [formula] Binding rate% = 100%−Free rate%. [formula]"}, "[4]": {"details": "hydrochloric acid pH 1.2, 37°C, 8 × 10^-6 M, 0 h"}, "[5]": {"details": "hydrochloric acid, 24 h, 8 µM, pH 1.2"}, "[6]": {"details": "hydrochloric acid, 48 h, 8 µM, pH 1.2"}, "[7]": {"details": "hydrochloric acid, 96 h, 8 µM, pH 1.2"}}, "note": "Where two headings read alike, the source gives them in different places. Marks after values point to notes of the source that are not given here."}
{"substance": "Gadobutrol", "values": [{"measurement": "Relaxivity r1", "setting": "[1]; 0.5 T", "value": 4.4, "unit": "mM⁻¹ s⁻¹"}, {"measurement": "Relaxivity r1", "setting": "[1]; 7 T", "value": 3.5, "unit": "mM⁻¹ s⁻¹"}, {"measurement": "Relaxivity r1", "setting": "[2]", "value": 7.5, "unit": "mM⁻¹ s⁻¹"}, {"measurement": "R1(t)/R1(0)", "setting": "[3]; 0 min", "value": 1}, {"measurement": "R1(t)/R1(0)", "setting": "[3]; 5 min", "value": 0.93}, {"measurement": "R1(t)/R1(0)", "setting": "[3]; 180 min", "value": 0.82}, {"measurement": "R1(t)/R1(0)", "setting": "[3]; 1440 min", "value": 0.96}, {"measurement": "R1(t)/R1(0)", "setting": "[3]; 5760 min", "value": 0.90}, {"measurement": "Gd^3+ Dissociation rate (%)", "setting": "[4]", "value": "BLQ"}, {"measurement": "Gd^3+ Dissociation rate (%)", "setting": "[5]", "value": 73.5, "unit": "%"}, {"measurement": "Gd^3+ Dissociation rate (%)", "setting": "[6]", "value": 70.1, "unit": "%"}, {"measurement": "Gd^3+ Dissociation rate (%)", "setting": "[7]", "value": 64.6, "unit": "%"}]}
{"substance": "Gadodiamide", "values": [{"measurement": "R1(t)/R1(0)", "setting": "[3]; 0 min", "value": 1}, {"measurement": "R1(t)/R1(0)", "setting": "[3]; 5 min", "value": 1.07}, {"measurement": "R1(t)/R1(0)", "setting": "[3]; 180 min", "value": 0.59}, {"measurement": "R1(t)/R1(0)", "setting": "[3]; 1440 min", "value": 0.59}, {"measurement": "R1(t)/R1(0)", "setting": "[3]; 5760 min", "value": 0.38}]}
{"substance": "Gadopiclenol [RC1]", "values": [{"measurement": "Relaxivity r1", "setting": "[1]; 0.5 T", "value": 11.7, "unit": "mM⁻¹ s⁻¹"}, {"measurement": "Relaxivity r1", "setting": "[1]; 7 T", "value": 6.3, "unit": "mM⁻¹ s⁻¹"}, {"measurement": "Average% (binding rate)", "setting": "canine plasma proteins", "value": "0* %"}, {"measurement": "Gd^3+ Dissociation rate (%)", "setting": "[4]", "value": "BLQ"}, {"measurement": "Gd^3+ Dissociation rate (%)", "setting": "[5]", "value": 24.7, "unit": "%"}, {"measurement": "Gd^3+ Dissociation rate (%)", "setting": "[6]", "value": 35.6, "unit": "%"}, {"measurement": "Gd^3+ Dissociation rate (%)", "setting": "[7]", "value": 37.8, "unit": "%"}]}
